# Key:
# HCT 116 (colon cancer) = assay: 51Cr-release CTL-assay against tumor cell line HCT 116; type: cell-based, human; conditions: cell line HCT 116, FIG. 3a
# Experimental: In the CTL-assays, tumor cells, peptide-pulsed cells of different cell lines and autologous DC were used as target cells. Peptide-pulsed cells were pulsed with 50 μg/ml peptide (SEQ ID No. 1 or SEQ ID No. 2) for 2 hours. All target cells were labeled with [^51Cr] sodium chromate in RP10 (RPMI 1640, supplemented with 10% heat inactivated calf serum and antibiotics) for 1 hour at 37° C. Subsequently, 10^4 cells/well were transferred to a 96-well round bottomed plate. Varying numbers of CTL were added to give a final volume of 200 μl and incubated for 4 hours at 37° C. At the end of the assays, supernatants (50 μl/well) were harvested and counted in a beta-plate counter. […] The spontaneous and maximal release were determined in the presence of either medium or 2% Triton X-100, respectively.
# Next, it was tested, in a standard tumor ^51Cr-release-assays again, whether CTL specific for the c-Met-peptide with SEQ ID No. 1 or for adipophilin-peptide with SEQ ID No. 2 recognized and lysed tumor cells, which endogenously express the c-Met-protooncogene or adipophilin. […]
# 51Cr-labeled U 266 = assay: Lysis-inhibition assay with cold peptide-pulsed T2 inhibitor cells, target U 266; type: cell-based, human; conditions: c-Met-peptide-induced CTL, inhibitor:target 20:1, FIGS. 4a and 4b
# Experimental: To further verify the antigen-specificity and the MHC-restriction of the in-vitro-induced CTL, inhibition assays with non-^51Cr-labeled (“cold”) inhibitor cell lines were performed.
# In doing so, the ability of peptide-pulsed cell lines was analyzed to inhibit the lysis of tumor cells (competition assay). For this purpose, an excess of inhibitor (that is an excess of unlabeled pulsed cells) was used. The ratio of inhibitor (peptide-pulsed cells) to target (tumor cells) was 20:1. When inhibitor cell lines were lysed, no ^51Cr was released, since the inhibitor cell lines were unlabeled.
# Cell line T2 (HLA-A*02; TAP-deficient; see under 2.5.a) was used as inhibitor. Previous to the assay, this cell line T2 was pulsed with the relevant peptides (SEQ ID NOS:1 or 2) or an irrelevant control peptide (Survivin (=Sv), SEQ ID NO:80), respectively.
# In FIGS. 4a and 4b, lysis of the ^51Cr-labeled cell lines U 266 and A 498 was tested without inhibitor cell line (see the curve with black filled boxes); lysis with inhibitor cell line T2, pulsed with an irrelevant peptide (Survivin; SEQ ID NO:80; negative control, curves with the filled triangles); and lyses with the inhibitor cell line T2 pulsed with the c-Met-peptide with SEQ ID NO:1 (curves with the empty rhombus).
sequence,measurement,setting,value
"YVDPVITSI (listed as Homo sapiens) [SEQ ID No. 1, HLA-A*02 ligand, met proto-oncogen 654-662]",lysis of tumor cells by CTL induced with the peptide,HCT 116 (colon cancer),efficiently lyse
same,lysis of 51Cr-labeled tumor cells in presence of unlabeled T2 inhibitor cells pulsed with the peptide,51Cr-labeled U 266,not lysed
